Measured values as given in ChEMBL document CHEMBL3046603, “Synthesis and antibacterial, antifungal activities of some 2r,4c-diaryl-3-azabicyclo[3.3.1]nonan-9-one-4-aminobenzoyl hydrazones” (2012).
Values after ≈ are worked out from the molar mass of the structure shown. Active and inactive are the calls of the source. No cut-off for these calls is given here.

How the values were obtained:
[1] = tested on: Aspergillus flavus; experiment: Antifungal activity against Aspergillus flavus after 72 to 96 hr by two-fold serial dilution method; assay type: functional
[2] = tested on: Cryptococcus neoformans; experiment: Antifungal activity against Cryptococcus neoformans after 72 to 96 hr by two-fold serial dilution method; assay type: functional
[3] = tested on: Bacillus subtilis; experiment: Antibacterial activity against Bacillus subtilis MTCC 121 after 24 hr two-fold serial dilution method; assay type: functional; conditions: MTCC 121, 24 h
[4] = tested on: Candida albicans; experiment: Antifungal activity against Candida albicans two-fold serial dilution method; assay type: functional
[5] = tested on: Salmonella typhimurium; experiment: Antibacterial activity against Salmonella enterica subsp. enterica serovar Typhimurium MTCC 98 after 24 hr two-fold serial dilution method; assay type: functional; conditions: MTCC 98, 24 h
[6] = tested on: Salmonella typhi; experiment: Antibacterial activity against Salmonella enterica subsp. enterica serovar Typhi MTCC 531 after 24 hr two-fold serial dilution method; assay type: functional; conditions: MTCC 531, 24 h
[7] = tested on: Klebsiella pneumoniae; experiment: Antibacterial activity against Klebsiella pneumoniae MTCC 2272 after 24 hr two-fold serial dilution method; assay type: functional; conditions: MTCC 2272, 24 h
[8] = tested on: Staphylococcus aureus; experiment: Antibacterial activity against Staphylococcus aureus MTCC 96 after 24 hr two-fold serial dilution method; assay type: functional; conditions: MTCC 96, 24 h
[9] = tested on: Aspergillus niger; experiment: Antifungal activity against Aspergillus niger after 72 to 96 hr by two-fold serial dilution method; assay type: functional
[10] = tested on: Pseudomonas aeruginosa; experiment: Antibacterial activity against Pseudomonas aeruginosa MTCC 741 after 24 hr two-fold serial dilution method; assay type: functional; conditions: MTCC 741, 24 h
[11] = tested on: Escherichia coli; experiment: Antibacterial activity against Escherichia coli MTCC 443 after 24 hr two-fold serial dilution method; assay type: functional; conditions: MTCC 443, 24 h
[12] = tested on: Fusarium oxysporum; experiment: Antifungal activity against Fusarium oxysporum after 72 to 96 hr by two-fold serial dilution method; assay type: functional
[13] = tested on: Vibrio cholerae; experiment: Antibacterial activity against Vibrio cholerae after 24 hr two-fold serial dilution method; assay type: functional
[14] = tested on: Cryptococcus neoformans; experiment: Antifungal activity against Cryptococcus neoformans at 200 ug/ml after 72 to 96 hr by two-fold serial dilution method; assay type: functional, organism-based

SMILES | MIC [1] | MIC [2] | MIC [3] | MIC [4] | MIC [5] | MIC [6] | MIC [7] | MIC [8] | MIC [9] | MIC [10] | MIC [11] | MIC [12] | MIC [13] | Activity [14]
Nc1ccc(C(=O)NN=C2C3CCCC2C(c2ccc(Br)cc2)NC3c2ccc(Br)cc2)cc1 (configuration not stated) | 100 µg/mL (≈ 172 µM) | 100 µg/mL (≈ 172 µM) | 200 µg/mL (≈ 343 µM) | 200 µg/mL (≈ 343 µM) | 200 µg/mL (≈ 343 µM) | 50 µg/mL (≈ 85.9 µM) | 200 µg/mL (≈ 343 µM) | 50 µg/mL (≈ 85.9 µM) | 50 µg/mL (≈ 85.9 µM) | 50 µg/mL (≈ 85.9 µM) | 100 µg/mL (≈ 172 µM) | 100 µg/mL (≈ 172 µM) | 200 µg/mL (≈ 343 µM) | –
COc1ccc(C2NC(c3ccc(OC)cc3)C3CCCC2C3=NNC(=O)c2ccc(N)cc2)cc1 (configuration not stated) | 50 µg/mL (≈ 103 µM) | 200 µg/mL (≈ 413 µM) | 100 µg/mL (≈ 206 µM) | 200 µg/mL (≈ 413 µM) | 200 µg/mL (≈ 413 µM) | 100 µg/mL (≈ 206 µM) | 200 µg/mL (≈ 413 µM) | 100 µg/mL (≈ 206 µM) | 100 µg/mL (≈ 206 µM) | 200 µg/mL (≈ 413 µM) | 100 µg/mL (≈ 206 µM) | 100 µg/mL (≈ 206 µM) | 50 µg/mL (≈ 103 µM) | –
Nc1ccc(C(=O)NN=C2C3CCCC2C(c2ccccc2Cl)NC3c2ccccc2Cl)cc1 (configuration not stated) | 200 µg/mL (≈ 405 µM) | 100 µg/mL (≈ 203 µM) | 200 µg/mL (≈ 405 µM) | 200 µg/mL (≈ 405 µM) | 50 µg/mL (≈ 101 µM) | 100 µg/mL (≈ 203 µM) | 50 µg/mL (≈ 101 µM) | 200 µg/mL (≈ 405 µM) | 100 µg/mL (≈ 203 µM) | 100 µg/mL (≈ 203 µM) | 100 µg/mL (≈ 203 µM) | 100 µg/mL (≈ 203 µM) | 50 µg/mL (≈ 101 µM) | –
Nc1ccc(C(=O)NN=C2C3CCCC2C(c2ccc(F)cc2)NC3c2ccc(F)cc2)cc1 (configuration not stated) | 200 µg/mL (≈ 434 µM) | 200 µg/mL (≈ 434 µM) | 25 µg/mL (≈ 54.3 µM) | 100 µg/mL (≈ 217 µM) | 100 µg/mL (≈ 217 µM) | 100 µg/mL (≈ 217 µM) | 50 µg/mL (≈ 109 µM) | 50 µg/mL (≈ 109 µM) | 100 µg/mL (≈ 217 µM) | 200 µg/mL (≈ 434 µM) | 100 µg/mL (≈ 217 µM) | 50 µg/mL (≈ 109 µM) | 50 µg/mL (≈ 109 µM) | –
Nc1ccc(C(=O)NN=C2C3CCCC2C(c2ccc(Cl)cc2)NC3c2ccc(Cl)cc2)cc1 (configuration not stated) | 100 µg/mL (≈ 203 µM) | 200 µg/mL (≈ 405 µM) | 50 µg/mL (≈ 101 µM) | 100 µg/mL (≈ 203 µM) | 200 µg/mL (≈ 405 µM) | 200 µg/mL (≈ 405 µM) | 200 µg/mL (≈ 405 µM) | 50 µg/mL (≈ 101 µM) | 50 µg/mL (≈ 101 µM) | 100 µg/mL (≈ 203 µM) | 50 µg/mL (≈ 101 µM) | 200 µg/mL (≈ 405 µM) | 100 µg/mL (≈ 203 µM) | –
Cc1ccc(C2NC(c3ccc(C)cc3)C3CCCC2C3=NNC(=O)c2ccc(N)cc2)cc1 (configuration not stated) | 200 µg/mL (≈ 442 µM) | 100 µg/mL (≈ 221 µM) | 100 µg/mL (≈ 221 µM) | 200 µg/mL (≈ 442 µM) | 200 µg/mL (≈ 442 µM) | 100 µg/mL (≈ 221 µM) | 200 µg/mL (≈ 442 µM) | 200 µg/mL (≈ 442 µM) | 100 µg/mL (≈ 221 µM) | 200 µg/mL (≈ 442 µM) | 100 µg/mL (≈ 221 µM) | 100 µg/mL (≈ 221 µM) | 200 µg/mL (≈ 442 µM) | –
Nc1ccc(C(=O)NN=C2C3CCCC2C(c2ccccc2)NC3c2ccccc2)cc1 (configuration not stated) | 200 µg/mL (≈ 471 µM) | – | 100 µg/mL (≈ 236 µM) | – | 200 µg/mL (≈ 471 µM) | 200 µg/mL (≈ 471 µM) | 50 µg/mL (≈ 118 µM) | 200 µg/mL (≈ 471 µM) | – | 200 µg/mL (≈ 471 µM) | 200 µg/mL (≈ 471 µM) | 200 µg/mL (≈ 471 µM) | 100 µg/mL (≈ 236 µM) | inactive
C[C@@H]1[C@H](O)[C@@H](C)/C=C/C=C/C=C/C=C/C=C/C=C/C=C/[C@H](O[C@@H]2O[C@H](C)[C@@H](O)[C@H](N)[C@@H]2O)C[C@@H]2O[C@](O)(C[C@@H](O)C[C@@H](O)[C@H](O)CC[C@@H](O)C[C@@H](O)CC(=O)O[C@H]1C)C[C@H](O)[C@H]2C(=O)O [AMPHOTERICIN B] | 50 µg/mL (≈ 54.1 µM) | 25 µg/mL (≈ 27.1 µM) | – | 25 µg/mL (≈ 27.1 µM) | – | – | – | – | 50 µg/mL (≈ 54.1 µM) | – | – | 25 µg/mL (≈ 27.1 µM) | – | –
CN[C@@H]1[C@H](O[C@H]2[C@H](O[C@H]3[C@H](O)[C@@H](O)[C@H](N=C(N)N)[C@@H](O)[C@@H]3N=C(N)N)O[C@@H](C)[C@]2(O)C=O)O[C@@H](CO)[C@H](O)[C@H]1O [STREPTOMYCIN] | – | – | 12.5 µg/mL (≈ 21.5 µM) | – | 25 µg/mL (≈ 43 µM) | 25 µg/mL (≈ 43 µM) | 20 µg/mL (≈ 34.4 µM) | 25 µg/mL (≈ 43 µM) | – | 50 µg/mL (≈ 86 µM) | 50 µg/mL (≈ 86 µM) | – | 50 µg/mL (≈ 86 µM) | –
